This test concerns CDAHFD-induced late stage NAFLD/NASH in mice. Put plainly: Benchmark study against Firsocostat and Fenofibrate in CDAHFD-induced late stage NAFLD/NASH. Type of test: in vivo, C57BL/6J male mice. Conditions: QD oral gavage four weeks; TOFA 250 mg/kg, Firsocostat 5 mg/kg, Fenofibrate 50 mg/kg. Here is the method:
Six-week-old C57BL/6J male mice were fed with a L-amino acid diet with 60 kcal % fat with 0.1% methionine and no added choline (CDAHFD; Research Diets A06071302i) for eight weeks. Mice were randomly assigned to treatment groups of either a vehicle (control), 250 mg/kg of TOFA, 5 mg/kg of Firsocostat (Gilead Sciences), 50 mg/kg of Fenofibrate, or a combined dose of 5 mg/kg Firsocostat and 50 mg/kg Fenofibrate. All treatments were delivered QD by oral gavage for an additional four weeks. Mice weights and food intake were monitored during the treatment time course. Upon study termination at 12 weeks, liver and serum samples were collected. Serum liver damage biomarkers, ALT and AST, were measured by commercially available kits (abcam 105134 and abcam 105135, respectively). Hepatic and serum triglyceride levels were measured from a commercially available kit (abcam65336). Total RNA was extracted from liver tissues (Qiagen RNeasy kit 74106), and cDNA was prepared (BioRAD iScript™ Reverse Transcription) according to manufacturer's protocols. Quantitative PCR (qPCR) was performed with fast SYBR Green Mix (ThermoFisher A25742) on the QuantStudio6 System (Applied Biosciences). Protein expression levels of liver samples were measured by western blot using antibodies against VLDLR (AF2258, 1:2000), CPT1A (CST12252, 1:1000) and Histone H3 (CST9715, 1:1000). Membranes were developed using a HRP secondary antibody (1:5000) and visualized using an enhanced chemiluminescent HRP substrate (Thermo34577). Additional liver samples were fixed in 4% paraformaldehyde and embedded in paraffin blocks for sectioning and subsequently stained with hematoxylin and eosin (H&E).

1 molecule from patent US20260034091A1, “Compositions and Methods for Treating Metabolic Disorders” (The Regents of the University of California, priority 2022, published 2026) can be followed below.

The structures appear in SMILES notation.

On to `COc1ccccc1[C@H](Cn1c(=O)n(C(C)(C)C(=O)O)c(=O)c2c(C)c(-c3ncco3)sc21)OC1CCOCC1` [Firsocostat, reference compound], for which the “serum ALT” value is “decreases” and the “serum AST” value is reported as “decreases”.
